Assay results published in US20250366475A1, “HERBICIDAL COMBINATIONS AND A METHOD FOR CONTROLLING UNDESIRED VEGETATION” (UPL Mauritius Limited, priority 2022, published 2025).

System: Brachiaria decumbens
Assay: Post-emergence herbicidal activity, efficacy on Brachiaria decumbens (Colby method for expected efficacy)
Assay type: in vivo
Description: Methodology: Trials were conducted to evaluate the efficacy of the combinations comprising L-glufosinate ammonium and the additional herbicides on Brachiaria genus weeds.
All treatments were in 4 replications per treatment with a spray volume of about 150 L/ha.
Efficacy Evaluation: The expected efficacy of a combination comprising L-glufosinate ammonium and additional herbicides was calculated using the well-established Colby method.
In the Colby method, the expected (or predicted) response of a combination of herbicides is calculated by taking the product of the observed response for each individual component of the combination when applied alone, divided by 100, and subtracting this value from the sum of the observed response for each component when applied alone. An unexpected enhancement in efficacy of the combination is then determined by comparing the observed response of the combination to the expected (or predicted) response as calculated from the observed response of each individual component alone. […] The Colby method requires only a single dose of each herbicide applied alone and the mixture of both doses. The formula used to calculate the expected efficacy (EE) which was compared with the observed efficacy (OE) to determine the efficacy of the present disclosure is explained hereinbelow:
The expected efficacy for a combination of two active ingredients is as follows:
[formula] • wherein, • A=Observed efficacy of active ingredient A at the same concentration as used in the mixture. • B=Observed efficacy of the active ingredient B at the same concentration as used in the mixture.

CCc1cccc(C)c1N(COC(C)C)C(=O)CCl [Propisochlor]
Observed efficacy (%) (540 g a.i./ha, 7 DAA, Table 12): 0%
Observed efficacy (%) (540 g a.i./ha, 14 DAA, Table 12): 0%
Observed efficacy (%) (540 g a.i./ha, 21 DAA, Table 12): 0%
Observed efficacy (%) (540 g a.i./ha, 28 DAA, Table 12): 0%

C[C@@H](Oc1ccc(Oc2cnc3cc(Cl)ccc3n2)cc1)C(=O)OCC1CCCO1 (some centres unmarked) [quizalofop-p-tefuryl, Quizalofop-p-tefuryl]
Observed efficacy (%) (25 g a.i./ha, 14 DAA, Table 15): 20%
Observed efficacy (%) (25 g a.i./ha, 21 DAA, Table 15): 10%
Observed efficacy (%) (25 g a.i./ha, 28 DAA, Table 15): 5%
Observed efficacy (%) (25 g a.i./ha, 35 DAA, Table 15): 5%

CCc1cccc(C)c1N(C(=O)CCl)[C@@H](C)COC [S-metolachlor]
Observed efficacy (%) (960 g a.i./ha, 7 DAA, Table 7): 0%
Observed efficacy (%) (960 g a.i./ha, 14 DAA, Table 7): 0%
Observed efficacy (%) (960 g a.i./ha, 21 DAA, Table 7): 0%
Observed efficacy (%) (960 g a.i./ha, 28 DAA, Table 7): 0%

CS(=O)(=O)c1ccc(C(=O)C2C(=O)CCCC2=O)c([N+](=O)[O-])c1 [mesotrione, Mesotrione]
Observed efficacy (%) (100 g a.i./ha, 3 DAA, Table 16): 10%

Cc1ccc2c(c1)[C@H](Nc1nc(N)nc(C(C)F)n1)[C@@H](C)C2 (some centres unmarked) [Indaziflam]
Observed efficacy (%) (50 g a.i./ha, 7 DAA, Table 8): 50%
Observed efficacy (%) (50 g a.i./ha, 14 DAA, Table 8): 75%
Observed efficacy (%) (50 g a.i./ha, 21 DAA, Table 8): 90%

CS(=O)(=O)c1ccc(C(=O)C2C(=O)CCCC2=O)c(Cl)c1COCC(F)(F)F [tembotrione, Tembotrione]
Observed efficacy (%) (53 g a.i./ha, 3 DAA, Table 13): 8%

CCOC(=O)C(C)Oc1ccc(Oc2cnc3cc(Cl)ccc3n2)cc1 (centres unmarked) [quizalofop-ethyl, Quizalofop-ethyl]
Observed efficacy (%) (25 g a.i./ha, 28 DAA, Table 14): 35%
Observed efficacy (%) (25 g a.i./ha, 35 DAA, Table 14): 30%

Cn1nc(C(F)(F)F)c(CS(=O)(=O)C2=NOC(C)(C)C2)c1OC(F)F [Pyroxasulfone]
Observed efficacy (%) (75 g a.i./ha, 7 DAA, Table 10): 0%
Observed efficacy (%) (75 g a.i./ha, 14 DAA, Table 10): 15%
Observed efficacy (%) (75 g a.i./ha, 21 DAA, Table 10): 25%
Observed efficacy (%) (75 g a.i./ha, 28 DAA, Table 10): 20%

CCN(CC)C(=O)C(C)Oc1cccc2ccccc12 (centres unmarked) [napropamide, Napropamide]
Observed efficacy (%) (675 g a.i./ha, 7 DAA, Table 11): 5%
Observed efficacy (%) (675 g a.i./ha, 14 DAA, Table 11): 5%
Observed efficacy (%) (675 g a.i./ha, 21 DAA, Table 11): 5%
Observed efficacy (%) (675 g a.i./ha, 28 DAA, Table 11): 0%

CS(=O)(=O)c1cc(C(F)(F)F)ccc1C(=O)c1cnoc1C1CC1 [Isoxaflutole]
Observed efficacy (%) (60 g a.i./ha, 7 DAA, Table 9): 45%
Observed efficacy (%) (60 g a.i./ha, 14 DAA, Table 9): 70%
Observed efficacy (%) (60 g a.i./ha, 21 DAA, Table 9): 85%
Observed efficacy (%) (60 g a.i./ha, 28 DAA, Table 9): 75%

CP(=O)(O)CC[C@H](N)C(=O)O.N [L-glufosinate ammonium]
Observed efficacy (%) (150 g a.i./ha, 3 DAA, Table 13): 40%
Observed efficacy (%) (150 g a.i./ha, 3 DAA, Table 16): 40%
Observed efficacy (%) (150 g a.i./ha, 7 DAA, Table 7): 65%
Observed efficacy (%) (150 g a.i./ha, 7 DAA, Table 8): 75%
Observed efficacy (%) (150 g a.i./ha, 7 DAA, Table 9): 70%
Observed efficacy (%) (150 g a.i./ha, 7 DAA, Table 10): 65%
Observed efficacy (%) (150 g a.i./ha, 7 DAA, Table 11): 75%
Observed efficacy (%) (150 g a.i./ha, 7 DAA, Table 12): 65%
Observed efficacy (%) (150 g a.i./ha, 14 DAA, Table 7): 70%
Observed efficacy (%) (150 g a.i./ha, 14 DAA, Table 8): 65%
Observed efficacy (%) (150 g a.i./ha, 14 DAA, Table 9): 65%
Observed efficacy (%) (150 g a.i./ha, 14 DAA, Table 10): 70%
Observed efficacy (%) (150 g a.i./ha, 14 DAA, Table 11): 85%
Observed efficacy (%) (150 g a.i./ha, 14 DAA, Table 12): 70%
Observed efficacy (%) (150 g a.i./ha, 14 DAA, Table 15): 75%
Observed efficacy (%) (150 g a.i./ha, 21 DAA, Table 7): 70%
Observed efficacy (%) (150 g a.i./ha, 21 DAA, Table 8): 60%
Observed efficacy (%) (150 g a.i./ha, 21 DAA, Table 9): 60%
Observed efficacy (%) (150 g a.i./ha, 21 DAA, Table 10): 70%
Observed efficacy (%) (150 g a.i./ha, 21 DAA, Table 11): 85%
Observed efficacy (%) (150 g a.i./ha, 21 DAA, Table 12): 70%
Observed efficacy (%) (150 g a.i./ha, 21 DAA, Table 15): 70%
Observed efficacy (%) (150 g a.i./ha, 28 DAA, Table 7): 60%
Observed efficacy (%) (150 g a.i./ha, 28 DAA, Table 9): 60%
Observed efficacy (%) (150 g a.i./ha, 28 DAA, Table 10): 60%
Observed efficacy (%) (150 g a.i./ha, 28 DAA, Table 11): 85%
Observed efficacy (%) (150 g a.i./ha, 28 DAA, Table 12): 60%
Observed efficacy (%) (150 g a.i./ha, 28 DAA, Table 14): 60%
Observed efficacy (%) (150 g a.i./ha, 28 DAA, Table 15): 60%
Observed efficacy (%) (150 g a.i./ha, 35 DAA, Table 14): 55%
Observed efficacy (%) (150 g a.i./ha, 35 DAA, Table 15): 55%
